From patent publication US10329352B2, “Pyrrolobenzodiazepines and targeted conjugates” (priority 2011, dated 2019)
pIC50: −log10 of the molar value.

Legend:
Test in all cases: Free drug in vitro cytotoxicity (resazurin)
Assay type in all cases: cell-based
786-O = system: 786-O
Description: (§1) Cells as detailed below were collected and plated in 96 well black-sided plates at a density of 10,000 cells/well in 150 μL of medium. […] Resazurin (0.25 mM, 50 μL, Sigma, St. Louis, Mo.) in medium was added and incubation was continued for 4 hours. The plates were read on a Fusion HT microplate reader (Packard, Meriden, Conn.) using an excitation wavelength of 525 nm and an emission wavelength of 590 nm. Data from all assays were reduced using GraphPad Prism Version 4 for Windows (GraphPad Software, San Diego, Calif.). The IC50 concentrations compared to untreated control cells were determined using a 4 parameter curve fits.

Caki-1 = system: Caki-1
Description: as §1

HEL9217 = system: HEL9217
Description: as §1

HL60 = system: HL60
Description: as §1

Q: COc1cc2c(cc1OCCCOc1cc3c(cc1OC)C(=O)N1C=C(c4ccc(O)cc4)C[C@H]1C=N3)N=C[C@@H]1CC(c3ccc(N)cc3)=CN1C2=O [compound 14] was tested. Which pIC50 (786-O; following 48 hours treatment) did it give?
A: 9.70

Q: And the pIC50 (Caki-1; following 48 hours treatment)?
A: 9.40

Q: And the pIC50 (HEL9217; following 48 hours treatment)?
A: 10.30

Q: And the pIC50 (HL60; following 48 hours treatment)?
A: 10.52

Q: Which results are given for COC(=O)c1ccc(C2=CN3C(=O)c4cc(OC)c(OCCCCCOc5cc6c(cc5OC)C(=O)N5C=C(c7ccc(N)cc7)C[C@H]5C=N6)cc4N=C[C@@H]3C2)cc1 [compound 4, (S)-2-(4-aminophenyl)-7-methoxy-8-(5-((S)-7-methoxy-2-(4-methyloxycarbonylphenyl)-5-oxo-5,11a-dihydro-1H-pyrrolo[2,1-c][1,4]benzodiazepin-8-yloxy)pentyloxy)-1H-pyrrolo[2,1-c][1,4]benzodiazepine-5(11aH)-one]?
A: pIC50 (786-O; Homo sapiens, 786-0, following 48 hours treatment): 10.30; pIC50 (Caki-1; Homo sapiens, CAKI-1, following 48 hours treatment): 10.70; pIC50 (HEL9217; Homo sapiens, HEL 92.1.7, following 48 hours treatment): 11.10; pIC50 (HL60; Homo sapiens, HL-60, following 48 hours treatment): 11.10
